27 molecules from patent US9433622B2, “Pyrimidine compounds useful in the treatment of diseases mediated by IKKE and/or TBK1 mechanisms” (DOMAINEX LIMITED, priority 2013, dated 2016) can be followed below.

One assay has as its target IKKε (Homo sapiens (Human), UniProt Q14164). The assay is described as follows: Lanthascreen TR-FRET kinase inhibition assay, IKKε. Format: biochemical. The settings on record: 20 μM ATP (apparent Km), 2 nM kinase, 1 h. An outline of the steps:
(§1)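 TR-FRET: terbium phosphospecific antibody detects phosphorylation of 400 nM fluorescein-IkBα peptide, 20 μM ATP, 20 °C, HEPES pH 7.5 with 3% DMSO. IKKε at 2 nM, 1 h reaction; TBK1 at 8 nM, 2.5 h reaction; started by kinase addition.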
For orientation: In TR-FRET formats the signal depends on donor and acceptor labels being close together.

A further assay concerns the target TBK1 (Homo sapiens (Human), UniProt Q9UHD2). The assay is described as follows: Lanthascreen TR-FRET kinase inhibition assay, TBK1. Format: biochemical. The conditions noted are these: 20 μM ATP (apparent Km), 8 nM kinase, 2.5 h. Put shortly: as §1

Some results are limits rather than exact numbers.

Chain of TBK1 (Q9UHD2 whole entry): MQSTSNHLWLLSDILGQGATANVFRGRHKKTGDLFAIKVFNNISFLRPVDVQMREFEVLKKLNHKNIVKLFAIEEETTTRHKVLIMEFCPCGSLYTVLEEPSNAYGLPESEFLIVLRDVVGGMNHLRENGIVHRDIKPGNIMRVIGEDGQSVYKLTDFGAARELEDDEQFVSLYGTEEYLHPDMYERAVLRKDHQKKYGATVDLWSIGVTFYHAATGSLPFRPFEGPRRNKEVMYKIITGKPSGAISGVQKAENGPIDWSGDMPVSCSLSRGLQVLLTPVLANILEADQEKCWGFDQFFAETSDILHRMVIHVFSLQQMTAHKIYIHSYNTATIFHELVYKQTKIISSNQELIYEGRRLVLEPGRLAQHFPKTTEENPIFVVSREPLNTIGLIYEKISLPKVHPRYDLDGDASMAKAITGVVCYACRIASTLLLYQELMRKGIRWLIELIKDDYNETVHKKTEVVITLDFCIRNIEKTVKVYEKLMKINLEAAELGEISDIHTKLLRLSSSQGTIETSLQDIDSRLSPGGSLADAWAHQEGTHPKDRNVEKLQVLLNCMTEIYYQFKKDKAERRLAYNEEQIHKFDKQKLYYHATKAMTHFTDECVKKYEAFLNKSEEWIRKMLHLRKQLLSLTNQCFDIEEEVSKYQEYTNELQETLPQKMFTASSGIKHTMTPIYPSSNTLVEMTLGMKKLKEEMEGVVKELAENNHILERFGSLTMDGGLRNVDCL
Chain of IKKε (Q14164 whole entry): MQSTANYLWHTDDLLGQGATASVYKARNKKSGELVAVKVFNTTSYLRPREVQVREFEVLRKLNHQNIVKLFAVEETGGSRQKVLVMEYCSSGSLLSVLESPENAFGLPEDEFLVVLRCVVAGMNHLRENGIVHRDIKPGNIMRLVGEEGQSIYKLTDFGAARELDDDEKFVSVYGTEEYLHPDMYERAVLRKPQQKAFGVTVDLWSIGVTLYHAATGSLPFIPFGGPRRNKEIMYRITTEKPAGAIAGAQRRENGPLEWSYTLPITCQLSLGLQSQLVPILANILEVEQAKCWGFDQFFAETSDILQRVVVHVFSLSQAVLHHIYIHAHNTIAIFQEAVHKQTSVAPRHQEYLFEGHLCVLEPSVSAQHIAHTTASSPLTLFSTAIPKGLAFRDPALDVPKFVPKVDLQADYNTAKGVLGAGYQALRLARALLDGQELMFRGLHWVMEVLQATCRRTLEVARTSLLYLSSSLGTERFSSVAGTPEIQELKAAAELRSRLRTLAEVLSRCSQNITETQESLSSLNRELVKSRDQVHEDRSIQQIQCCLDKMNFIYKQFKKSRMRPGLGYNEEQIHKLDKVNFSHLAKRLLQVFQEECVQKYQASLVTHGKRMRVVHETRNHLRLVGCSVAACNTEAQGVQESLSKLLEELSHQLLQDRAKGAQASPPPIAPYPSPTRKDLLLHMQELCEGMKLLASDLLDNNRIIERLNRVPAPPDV

What is called IC50 is the concentration that gives 50% inhibition. As for `N#Cc1cc(-c2ccnc(Nc3ccc(NCCN4CCOCC4)nc3)n2)cnc1N1CC[C@H](F)C1` [DMX-67, 2-((S)-3-Fluoro-pyrrolidin-1-yl)-5-{2-[6-(2-morpholin-4-yl-ethylamino)-pyridin-3-ylamino]-pyrimidin-4-yl}-nicotinonitrile], the IC50 at IKKε was less than 15 nM; at TBK1, less than 30 nM.

For the molecule `N#Cc1cc(-c2ccnc(Nc3ccc(CN4CCOCC4)nc3)n2)cnc1N1CC[C@H](F)C1` [DMX-68, 2-((S)-3-Fluoro-pyrrolidin-1-yl)-5-[2-(6-morpholin-4-ylmethyl-pyridin-3-ylamino)-pyrimidin-4-yl]-nicotinonitrile], the IC50 on IKKε and at TBK1 was less than 15 nM throughout.

Take `N#Cc1cc(-c2ccnc(Nc3ccc(NC(=O)CN4CC[C@H](F)C4)nc3)n2)cnc1N1CC[C@H](F)C1` [DMX-69, N-(5-{4-[5-Cyano-6-((S)-3-fluoro-pyrrolidin-1-yl)-pyridin-3-yl]-pyrimidin-2-ylamino}-pyridin-2-yl)-2-((S)-3-fluoro-pyrrolidin-1-yl)-acetamide]: the IC50 at IKKε is less than 30 nM; on TBK1, less than 100 nM.

As to `N#Cc1cc(-c2ccnc(Nc3ccc(OCCN4CC[C@H](F)C4)nc3)n2)cnc1N1CC[C@H](F)C1` [DMX-70, 2-((S)-3-Fluoro-pyrrolidin-1-yl)-5-(2-{6-[2-((S)-3-fluoro-pyrrolidin-1-yl)-ethoxy]-pyridin-3-ylamino}-pyrimidin-4-yl)-nicotinonitrile], the IC50 at IKKε and at TBK1 was less than 100 nM each time.

Take `N#Cc1cc(-c2ccnc(Nc3ccnc(N4CCOCC4)c3)n2)cnc1N1CC[C@H](O)C1` [DMX-71, 2-((S)-3-Hydroxy-pyrrolidin 1-yl)-5-[2-(2-morpholin-4-yl-pyridin-4-ylamino)-pyrimidin-4-yl]-nicotinonitrile]: the IC50 on IKKε and on TBK1 was less than 30 nM each time.

Turning to `COCCNc1cc(Nc2nccc(-c3cnc(N4CC[C@H](F)C4)c(C#N)c3)n2)ccn1` [DMX-72, 2-((S)-3-Fluoro-pyrrolidin-1-yl)-5-{2-[2-(2-methoxy-ethylamino)-pyridin-4-ylamino]-pyrimidin-4-yl}-nicotinonitrile], the IC50 is less than 30 nM at IKKε and less than 15 nM on TBK1.

As for `N#Cc1cc(-c2ccnc(Nc3cccc(=O)[nH]3)n2)cnc1N1CC[C@H](F)C1` [DMX-73, 2-((S)-3-Fluoro-pyrrolidin-1-yl)-5-[2-(6-oxo-1,6-dihydro-pyridin-2-ylamino)-pyrimidin-4-yl]-nicotinonitrile], the IC50 at IKKε and on TBK1 was less than 1000 nM throughout.

As to `CN(C(=O)CN1CCOCC1)c1ccc(Nc2nccc(-c3cnc(N4CC[C@H](F)C4)c(C#N)c3)n2)cn1` [DMX-74, N-(5-{4-[5-Cyano-6-((S)-3-fluoro-pyrrolidin-1-yl)-pyridin-3-yl]-pyrimidin-2-ylamino}-pyridin-2-yl)-N-methyl-2-morpholin-4-yl-acetamide], the IC50 on IKKε and at TBK1 was less than 100 nM throughout.

Consider `CN(C(=O)CN1CCOCC1)c1ccc(Nc2nccc(-c3cnc(N4CC[C@H](O)C4)c(C#N)c3)n2)cn1` [DMX-75, N-(5-{4-[5-Cyano-6-((S)-3-hydroxy-pyrrolidin-1-yl)-pyridin-3-yl]-pyrimidin-2-ylamino}-pyridin-2-yl)-N-methyl-2-morpholin-4-yl-acetamide], for which the IC50 on IKKε and on TBK1 was less than 1000 nM throughout.

For `CN1Cc2ccc(Nc3nccc(-c4cnc(N5CC[C@H](F)C5)c(C#N)c4)n3)cc2C1` [DMX-76, 2-((S)-3-Fluoro-pyrrolidin-1-yl)-5-[2-(2-methyl-2,3-dihydro-1H-isoindol-5-ylamino)-pyrimidin-4-yl]-nicotinonitrile], the IC50 at IKKε and at TBK1 was less than 15 nM in each case.

In the case of `COCCNCc1ccc(Nc2nccc(-c3cnc(N4CC[C@H](F)C4)c(C#N)c3)n2)cn1` [DMX-77, 2-((S)-3-Fluoro-pyrrolidin-1-yl)-5-(2-{6-[(2-methoxy-ethylamino)-methyl]-pyridin-3-ylamino}-pyrimidin-4-yl)-nicotinonitrile], the IC50 on IKKε and at TBK1 was less than 100 nM in each case.

With `C[C@H]1COCCN1Cc1cc(Nc2nccc(-c3cnc(N4CC[C@H](F)C4)c(C#N)c3)n2)ccn1` [DMX-78, 2-((S)-3-Fluoro-pyrrolidin-1-yl)-5-{2-[2-((S)-3-methyl-morpholin-4-ylmethyl)-pyridin-4-ylamino]-pyrimidin-4-yl}-nicotinonitrile], the IC50 at IKKε is less than 30 nM; at TBK1, less than 15 nM.

Turning to `C[C@H]1COCCN1Cc1ccc(Nc2nccc(-c3cnc(N4CC[C@H](F)C4)c(C#N)c3)n2)cn1` [DMX-79, 2-((S)-3-Fluoro-pyrrolidin-1-yl)-5-{2-[6-((S)-3-methyl-morpholin-4-ylmethyl)-pyridin-3-ylamino]-pyrimidin-4-yl}-nicotinonitrile], the IC50 on IKKε was less than 100 nM; on TBK1 it was less than 30 nM.

As to `N#Cc1cc(-c2ccnc(Nc3ccc(CN4CC[C@H](F)C4)nc3)n2)cnc1N1CC[C@H](F)C1` [DMX-80, 2-((S)-3-Fluoro-pyrrolidin-1-yl)-5-{2-[6-((S)-3-fluoro-pyrrolidin-1-ylmethyl)-pyridin-3-ylamino]-pyrimidin-4-yl}-nicotinonitrile], the IC50 at IKKε was less than 15 nM; at TBK1, less than 30 nM.

Turning to `Cc1nccn1Cc1ccc(Nc2nccc(-c3cnc(N4CC[C@H](F)C4)c(C#N)c3)n2)cn1` [DMX-81, 2-((S)-3-Fluoro-pyrrolidin-1-yl)-5-{2-[6-(2-methyl-imidazol-1-ylmethyl)-pyridin-3-ylamino]-pyrimidin-4-yl}-nicotinonitrile], the IC50 on IKKε and on TBK1 was less than 30 nM each time.

With `COCCN(C)Cc1ccc(Nc2nccc(-c3cnc(N4CC[C@H](F)C4)c(C#N)c3)n2)cn1` [DMX-82, 2-((S)-3-Fluoro-pyrrolidin-1-yl)-5-[2-(6-{[(2-methoxy-ethyl)-methyl-amino]-methyl}-pyridin-3-ylamino)-pyrimidin-4-yl]-nicotinonitrile], the IC50 at IKKε and at TBK1 was less than 100 nM throughout.

In the case of `COC1CN(Cc2ccc(Nc3nccc(-c4cnc(N5CC[C@H](F)C5)c(C#N)c4)n3)cn2)C1` [DMX-83, 2-((S)-3-Fluoro-pyrrolidin-1-yl)-5-{2-[6-(3-methoxy-azetidin-1-ylmethyl)-pyridin-3-ylamino]-pyrimidin-4-yl}-nicotinonitrile], the IC50 at IKKε and at TBK1 was less than 30 nM in each case.

`N#Cc1cc(-c2ccnc(Nc3ccc(CN4CCOCC4)nc3)n2)cnc1N1CCCOCC1` [DMX-84, 5-[2-(6-Morpholin-4-ylmethyl-pyridin-3-ylamino)-pyrimidin-4-yl]-2-[1,4]oxazepan-4-yl-nicotinonitrile]: the IC50 at IKKε and on TBK1 was less than 100 nM each time.

Take `N#Cc1cc(-c2ccnc(Nc3ccc(NC(=O)CN4CCOCC4)nc3)n2)cnc1N1CCCOCC1` [DMX-85, N-{5-[4-(5-Cyano-6-[1,4]oxazepan-4-yl-pyridin-3-yl)-pyrimidin-2-ylamino]-pyridin-2-yl}-2-morpholin-4-yl-acetamide]: the IC50 on IKKε and on TBK1 was less than 100 nM in each case.

Take `N#Cc1cc(-c2nc(Nc3ccc(NC(=O)CN4CCOCC4)nc3)ncc2F)cnc1N1CCCOCC1` [DMX-86, N-{5-[4-(5-Cyano-6-[1,4]oxazepan-4-yl-pyridin-3-yl)-5-fluoro-pyrimidin-2-ylamino]-pyridin-2-yl}-2-morpholin-4-yl-acetamide]: the 50% inhibitory concentration (IC50) was less than 1000 nM at IKKε and less than 100 nM at TBK1.

As for `N#Cc1cc(-c2nc(Nc3ccc(CN4CCOCC4)nc3)ncc2F)cnc1N1CCCOCC1` [DMX-87, 5-[5-Fluoro-2-(6-morpholin-4-ylmethyl-pyridin-3-ylamino)-pyrimidin-4-yl]-2-[1,4]oxazepan-4-yl-nicotinonitrile], the IC50 at IKKε and at TBK1 was less than 100 nM in each case.

For `N#Cc1cc(-c2nc(Nc3ccc(NC(=O)CN4CCOCC4)nc3)ncc2F)cnc1N1CC[C@H](F)C1` [DMX-88, N-(5-{4-[5-Cyano-6-((S)-3-fluoro-pyrrolidin-1-yl)-pyridin-3-yl]-5-fluoro-pyrimidin-2-ylamino}-pyridin-2-yl)-2-morpholin-4-yl-acetamide], the IC50 on IKKε and on TBK1 was less than 100 nM each time.

In the case of `N#Cc1cc(-c2nc(Nc3ccc(CN4CCOCC4)nc3)ncc2F)cnc1N1CC[C@H](F)C1` [DMX-89, 5-[5-Fluoro-2-(6-morpholin-4-ylmethyl-pyridin-3-ylamino)-pyrimidin-4-yl]-2-((S)-3-fluoro-pyrrolidin-1-yl)-nicotinonitrile], the values for the IC50 at IKKε and at TBK1 were less than 30 nM and less than 15 nM, respectively.

With `N#Cc1cc(-c2ccnc(Nc3ccc(CN4CCOCC4)nc3)n2)cnc1N1CCC2(COC2)C1` [DMX-92, 5-[2-(6-Morpholin-4-ylmethyl-pyridin-3-ylamino)-pyrimidin-4-yl]-2-(2-oxa-6-aza-spiro[3.4]oct-6-yl)-nicotinonitrile], the IC50 was less than 30 nM on IKKε and less than 100 nM at TBK1.

`N#Cc1cc(-c2ccnc(Nc3ccnc(NC(=O)CN4CCOCC4)c3)n2)cnc1N1CCC2(COC2)C1` [DMX-93, N-(4-{4-[5-Cyano-6-(2-oxa-6-aza-spiro[3.4]oct-6-yl)-pyridin-3-yl]-pyrimidin-2-ylamino}-pyridin-2-yl)-2-morpholin-4-yl-acetamide]: the IC50 on IKKε and at TBK1 was less than 100 nM in each case.

With `N#Cc1cc(-c2nc(Nc3ccnc(NC(=O)CN4CCOCC4)c3)ncc2F)cnc1N1CCCOCC1` [DMX-94, N-{4-[4-(5-Cyano-6-[1,4]oxazepan-4-yl-pyridin-3-yl)-5-fluoro-pyrimidin-2-ylamino]-pyridin-2-yl}-2-morpholin-4-yl-acetamide], the IC50 at IKKε was less than 1000 nM; on TBK1, less than 100 nM.

`COCCNc1cc(Nc2ncc(F)c(-c3cnc(N4CCCOCC4)c(C#N)c3)n2)ccn1` [DMX-95, 5-{5-Fluoro-2-[2-(2-methoxy-ethylamino)-pyridin-4-ylamino]-pyrimidin-4-yl}-2-[1,4]oxazepan-4-yl-nicotinonitrile]: the figures for the IC50 at IKKε and at TBK1 were less than 1000 nM and less than 100 nM, respectively.
